Counter-ions that a name gives are not always drawn.
Target: T1, human liver glycogen phosphorylase a (HLGPa) (Homo sapiens, UniProt P06737)
T1 construct: creating a full-length cDNA fused at the 5′ end to codons for methionine-glycine-alanine-histidine; 6xHis tag (leader Met-Gly-Ala-His6-Gly-Gly) (N); made in house; host or cells: E. coli (bacterial expression plasmid pTXK1007LTev)
T1 sequence (P06737 2-847 limits assumed): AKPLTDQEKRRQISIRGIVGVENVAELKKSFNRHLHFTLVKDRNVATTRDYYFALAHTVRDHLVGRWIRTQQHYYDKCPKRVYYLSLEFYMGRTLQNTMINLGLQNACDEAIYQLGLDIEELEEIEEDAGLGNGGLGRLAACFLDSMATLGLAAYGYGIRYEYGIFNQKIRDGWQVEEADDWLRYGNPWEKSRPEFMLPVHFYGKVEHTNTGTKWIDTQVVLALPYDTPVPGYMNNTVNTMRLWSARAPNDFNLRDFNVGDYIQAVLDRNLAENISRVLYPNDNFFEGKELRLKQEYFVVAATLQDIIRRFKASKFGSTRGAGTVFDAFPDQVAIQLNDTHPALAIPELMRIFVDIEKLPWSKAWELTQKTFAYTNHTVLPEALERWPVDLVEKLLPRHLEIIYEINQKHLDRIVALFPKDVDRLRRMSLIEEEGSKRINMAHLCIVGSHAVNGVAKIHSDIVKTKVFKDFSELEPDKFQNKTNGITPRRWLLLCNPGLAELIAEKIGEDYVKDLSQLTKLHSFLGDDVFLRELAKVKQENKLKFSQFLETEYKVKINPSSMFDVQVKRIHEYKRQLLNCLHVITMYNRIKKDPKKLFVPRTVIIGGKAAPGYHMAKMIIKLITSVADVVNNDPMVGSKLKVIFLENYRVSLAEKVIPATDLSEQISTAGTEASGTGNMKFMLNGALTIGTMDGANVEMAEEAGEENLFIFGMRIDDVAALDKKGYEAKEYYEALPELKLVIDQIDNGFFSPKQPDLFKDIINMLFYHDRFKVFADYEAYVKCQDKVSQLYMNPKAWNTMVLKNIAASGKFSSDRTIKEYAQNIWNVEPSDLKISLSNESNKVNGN
Test: Human liver glycogen phosphorylase a enzymatic activity assay (coupled, fluorescent resorufin readout, with and without 10 mM glucose)
Assay type: biochemical

[1] = human liver glycogen phosphorylase a enzymatic activity assay

Row | IC50 (human liver glycogen phosphorylase a, table does not say whether with or without 10 mM glucose) | IC50 [1] | SMILES
1 | 2370 nM | – | Cc1cc(C)c(NC(=O)Nc2cc3ccccc3cc2C(=O)NC(C(=O)O)C2CCC(N)CC2)c(C)c1 (mixture of isomers) [Example 351, (cis and trans)-(4-aminocyclohexyl)({[3-({[(2,4,6-trimethylphenyl)amino]carbonyl}amino)-2-naphthalenyl]carbonyl}amino)acetic acid trifluoroacetate]
2 | – | 99 nM | Cc1cccc(C)c1NC(=O)Nc1cc(-c2cccnc2)ccc1C(=O)N[C@H](C(=O)O)C1CCCCC1 [Example 181, (2S)-Cyclohexyl({[2-({[(2,6-dimethylphenyl)amino]carbonyl}amino)-4-(3-pyridinyl)phenyl]carbonyl}amino)ethanoic acid]
3 | – | 290 nM | COc1ccc(-c2cc(C(=O)O)c(NC(=O)Nc3c(C)cc(C)cc3C)s2)cc1 [Example 424, 5-[4-(methyloxy)phenyl]-2-({[(2,4,6-trimethylphenyl)amino]carbonyl}amino)-3-thiophenecarboxylic acid]
4 | – | 104 nM | Cc1cc(C)c(NC(=O)Nc2cc(-c3ccc(F)c(F)c3)sc2C(=O)NC2(C(=O)O)CCCCC2)c(C)c1 [Example 534, 1-({[5-(3,4-difluorophenyl)-3-({[(2,4,6-trimethylphenyl)amino]carbonyl}amino)-2-thienyl]carbonyl}amino)cyclohexanecarboxylic acid]
